“Also recorded” adds a separate entry of the source.
Legend:
[1] = target: T1, TRIM13-p62 complex (Homo sapiens, UniProt Q13501); assay: Co-IP with autophagy flux analysis using TRIM13 pulldown; assay type: cell-based; settings: HEK293T p62-myc + TRIM13-flag, YOK1104 2.5 μM 4 h, HCQ 10 μM 24 h; FIG. 5K
T1 construct: PCR amplification of a full-length human p62 cDNA fragment; expressed in transfected cells; host or cells: HEK293T
Description: FIG. 4I illustrates the Co-IP assay results in HEK293T cells treated with HCQ (10 μM, 24 h), tannic acid (30 μM, 24 h), or both, and co-transfected (24 h) with p62-myc and TRIM13-flag,
FIG. 5K illustrates the Co-IP assay results in HEK293T cells co-transfected with p62-myc and TRIM13-flag (24 h) or transfected with negative control empty vector (EV) and treated with HCQ (10 μM, 24 h), YOK1104 (2.5 μM, 4 h), or both, and
To test protein interaction, co-immunoprecipitation assays were performed. For exogenous co-IP, HEK293T cells were transfected with recombinant p62, BiP, TRIM13, reticulophagy regulator 1 (FAM134B), reticulon 3 (RTN3) or ATZ (Z variant E342K) using Lipofectamine 2000. The cell pellets were scraped and pelleted by centrifugation, resuspended and lysed in an immunoprecipitation buffer (IP buffer) [50 mM Tris-HCl pH 7.5, 150 mM NaCl, 0.5% Triton X-100, 1 mM EDTA, 1 mM phenylmethylsulfonyl fluoride (PMSF; Roche) and protease inhibitor cocktail (Sigma)] on a rotor at 4° C. for 30 min. Next, the supernatant and remaining pellets were passed through a 26-gauge 1 mL syringe 15 times and centrifuged at 13,000 g at 4° C. and collected for the supernatant, to which normal mouse IgG (Santa Cruz) and Protein A/G-Plus agarose beads (Santa Cruz) were added to preclear the lysate on a rotor at 4° C. overnight. The cell lysate was then incubated with M2 FLAG-affinity Gel agarose beads (Sigma) on a rotor at 4° C. for 3 h. The gel beads were washed four times with IP buffer, resuspended in 2× Laemmli Sample Buffer, separated by SDS-PAGE and analyzed by immunoblotting with specified antibodies.

[2] = tested on: TRIM13; assay: Autophagy flux assay of TRIM13-flag with bafilomycin A1; assay type: cell-based, human; settings: HeLa TRIM13-flag, 2.5 μM 4 h, with or without bafilomycin A1 200 nM 6 h; FIG. 11M
Description: FIG. 11M illustrates the Western blotting results of HeLa cells transfected with TRIM13-flag or negative control empty vector (EV), treated with YOK1104 (2.5 μM, 4 h), and treated with or without bafilomycin A1 (200 nM, 6 h),
(§1) Cell pellets were washed with phosphate-buffered saline (PBS) and lysed in an SDS-based sample buffer (277.8 mM Tris-HCl, pH 6.8, 4.4% LDS, 44.4% (v/v) glycerol) with beta-mercaptoethanol. Alternatively, cell pellets or protein supernatants were lysed in a 5× Laemmli sample buffer (SDS-based sample buffer). Using SDS-PAGE, whole cell lysates were separated and transferred onto polyvinylidene difluoride membranes at 100 V for 2 h at 4° C. Subsequently, the membrane was blocked with 4% skim milk in PBS solution for 30 min at room temperature and incubated overnight with primary antibodies (see Reference Example 4), followed by incubation with host-specific HRP-conjugated secondary antibodies (Jackson laboratory) (1:10000 dilution). For signal detection, a mixture of ECL solution (Thermo Fisher Scientific) was applied onto the membrane and captured using X-ray films.

[3] = tested on: BiP, PDI, TRIM13; assay: Immunoblotting of ER proteins under proteotoxic ER stress; assay type: cell-based, human; settings: HeLa, MG132 2 μM 24 h, YOK1104 2.5 μM 4 h; FIG. 5F
Description: FIG. 5F illustrates the immunoblotting analysis results of HeLa cells treated with MG132 (2 μM, 24 h), YOK1104 (2.5 μM, 4 h), or both,
as §1

[4] = tested on: HEK293T cells; assay: Transmission electron microscopy of treated cells; assay type: cell-based, human; settings: 2.5 μM, 6 h vs DMSO, FIG. 5E
Description: FIG. 5E is a transmission electron microscopy image of HEK293T cells treated with YOK1104 (2.5 μM, 6 h) or DMSO (control), where arrows indicate autolysosomes and asterisks indicate ER fragments inside autolysosomes (scale bars, 500 nm (1st & 2nd column), 200 nm (3rd column)),
For conventional transmission electron microscopy, HEK293T cells were treated with 2.5 μM YOK1104 for 6 h, scraped from culture dish and pelleted by centrifugation. The pellets were resuspended in 2.5% glutaraldeyhyde in 0.1 M sodium cacodylate buffer (pH 7.4) (Electron Microscopy Sciences) for overnight at 4° C. The fixative was replaced by a cacodylate buffer for the last 6 h, after which the cells were embedded in Epon resin. Subsequently, the cells were cut into 55-nm sections and stained with uranyl acetate and lead citrate using the Reichert Ultracut S Ultramicrotome (Leica Microsystems) and FEI Vitrobot Mark IV (Thermo Scientific), respectively. The cell sections were observed using the 200 kV transmission electron microscope FEI Tecnai G2-F20 (Thermo Scientific).

[5] = tested on: TRIM13; assay: In vivo oligomerization assay of TRIM13-flag (non-reducing SDS-PAGE); assay type: cell-based, human; settings: HEK293T, MG132 2 μM 24 h, YOK1104 2.5 μM 4 h; FIG. 5L
Description: FIG. 4H illustrates the in vivo oligomerization assay results of TRIM13-flag in HEK293T cells treated with HCQ (10 μM, 24 h), tannic acid (30 μM, 24 h), or both,
FIG. 5L illustrates the In vivo oligomerization assay results of TRIM13-flag in HEK293T cells treated with MG132 (2 μM, 24 h) and with or without YOK1104 (2.5 μM, 4 h).
HEK293T cells were transfected with TRIM13-flag using Lipofectamine 2000 and treated with hydroxychloroquine (Sigma) for 24 h. To lyse the cells, the cells were subjected to a cycle of freezing/thawing and centrifuged at 13,000 g for 10 min after 30 min incubation on ice for supernatant collection. Protein concentration was measured using the Pierce BCA Protein Assay Kit (Thermo Fisher Scientific). Next, a non-reducing 4×LDS sample buffer was added to the sample lysate and followed by boiling at 100° C. for 10 min. The samples were loaded on a 3% stacking and 8% separating SDS-PAGE. Immunoblotting assays were performed using an anti-Flag antibody (Sigma) to visualize the oligomeric complexes of TRIM13.

[6] = tested on: HeLa cells; assay: Western blotting of ER stress and apoptosis in tannic acid-treated cells; assay type: cell-based, human; settings: tannic acid 30 μM 24 h, YTK1105 5 μM 9 h, HCQ 10 μM 24 h, FIG. 5G
Description: FIG. 5G illustrates the Western blotting analysis results of HeLa cells treated with HCQ (10 μM, 24 h), YTK1105 (5 μM, 9 h), or both in the presence or absence of tannic acid (30 μM, 24 h),
as §1

[7] = tested on: HeLa cells; assay: ER expansion visualization by KDEL immunostaining; assay type: cell-based, human; settings: tannic acid 30 μM 24 h with YTK1105 2.5 μM 5 h or rapamycin 2 μM 18 h, FIGS. 5H, 5I
Description: FIG. 5H illustrates the immunostaining results of KDEL signals in HeLa cells treated with or without tannic acid (30 μM, 24 h) and with YTK1105 (2.5 μM, 5 h) or rapamycin (2 μM, 18 h) (scale bar, 10 μm),
To observe cellular localization of proteins, cells were cultured on cover slips coated with poly-L-lysine (Sigma). The cells were fixed with 4% paraformaldehyde in PBS (pH 7.4) for 15 min at room temperature and washed three times with PBS for 5 min. The cells were permeabilized with 0.5% Triton X-100 in PBS solution for 15 min and washed three times with PBS for 5 min. The cells were blocked with 2% BSA in PBS solution for 1 h at room temperature. After blocking, the cells were incubated overnight at 4° C. with a primary antibody diluted in 2% BSA/PBS solution. […] Confocal images were taken by a laser scanning confocal microscope 510 Meta (Zeiss) and analyzed by Zeiss LSM Image Browser (ver. 4.2.0.121).
Using confocal microscopy of cells analyzed by immunocytochemistry, ER expansion was visualized by considered when KDEL- or calnexin-labelled ER occupied more than 80% of cell area. Furthermore, the ER area was calculated by ImageJ (NIH, Bethesda, v1.52) and the background threshold was manually defined and set for all images. The ER area was calculated and marked from the total cell area as a fraction after borders of each cell were set.

T1 sequence (Q13501 whole entry, the tested form may be a part): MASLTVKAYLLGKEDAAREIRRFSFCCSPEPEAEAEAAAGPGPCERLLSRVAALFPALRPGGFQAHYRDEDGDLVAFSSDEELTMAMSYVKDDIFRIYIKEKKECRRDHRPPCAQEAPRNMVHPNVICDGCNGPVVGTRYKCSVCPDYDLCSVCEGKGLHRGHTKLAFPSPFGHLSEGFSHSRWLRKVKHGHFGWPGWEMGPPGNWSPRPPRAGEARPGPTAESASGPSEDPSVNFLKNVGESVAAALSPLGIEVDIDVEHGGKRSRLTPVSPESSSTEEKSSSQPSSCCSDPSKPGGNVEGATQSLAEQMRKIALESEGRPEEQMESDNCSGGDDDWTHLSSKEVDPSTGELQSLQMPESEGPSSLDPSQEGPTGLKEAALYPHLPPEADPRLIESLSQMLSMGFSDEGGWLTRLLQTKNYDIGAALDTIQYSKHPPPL
T1 sequence (O60858 whole entry partner, the tested form may be a part): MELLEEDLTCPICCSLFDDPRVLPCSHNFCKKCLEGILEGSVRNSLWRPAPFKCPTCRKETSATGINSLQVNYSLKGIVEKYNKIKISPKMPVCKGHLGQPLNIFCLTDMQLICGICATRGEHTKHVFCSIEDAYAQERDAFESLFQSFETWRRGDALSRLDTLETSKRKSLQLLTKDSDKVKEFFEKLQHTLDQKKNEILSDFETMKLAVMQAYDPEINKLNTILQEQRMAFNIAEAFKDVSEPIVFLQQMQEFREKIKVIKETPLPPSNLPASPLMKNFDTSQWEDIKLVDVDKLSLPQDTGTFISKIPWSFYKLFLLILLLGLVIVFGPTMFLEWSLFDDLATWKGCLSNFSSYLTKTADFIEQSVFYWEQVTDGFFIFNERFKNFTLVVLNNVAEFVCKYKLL

| Compound | autophagic degradation of the TRIM13-p62 complex [1] | autophagic degradation of TRIM13 [2] | degradation of BiP, PDI and TRIM13 following up-modulation by proteotoxic ER stress [3] | delivery of ER compartments to autolysosomes; autophagosomes and autolysosomes by transmission electron microscopy [4] | degradation of oligomeric vs monomeric species of TRIM13 [5] | rescue from ER stress and apoptosis [6] | ER morphology (swelling), KDEL signals [7] |
| --- | --- | --- | --- | --- | --- | --- | --- |
| CC(C)NC[C@@H](O)COc1ccc(OCc2ccccc2)c(OCc2ccccc2)c1 [YOK1104, (R)-1-(3,4-bis(benzyloxy)phenoxy)-3-(isopropylamino)propan-2-ol] | enhanced autophagic degradation of the TRIM13-p62 complex | drove TRIM13 to autophagic degradation | readily facilitated the degradation of BiP and PDI as well as TRIM13 | readily exhibited an abundance of autophagosomes and autolysosomes; also recorded: displayed the accumulation of ER fragments within their interior | selectively induced the degradation of oligomeric species but not that of monomeric species of TRIM13 |  |  |
| Cl.OCCNCc1ccc(OCc2ccccc2)c(OCc2ccccc2)c1 [YTK1105, 2-((3,4-bis(benzyloxy)benzyl)amino)ethan-1-ol hydrochloride] |  |  |  |  |  | rescued tannic acid-treated cells from ER stress and apoptosis in an autophagy-dependent manner | readily restored |

— patent publication US20220323379A1, “P62 LIGAND COMPOUND AND ER-PHAGY-PROMOTING USE THEREOF” (PROTECH, INC., priority 2019, published 2022)
